Source: patent US8221733B2, “Virucidal disinfectant” (priority 2002, dated 2012)
Where two headings read alike, the source gives them in different places.

System: poliovirus type 1 (Mahoney strain)
Type: cell-based
Conditions: 0.7% strength formaldehyde

C=O [formaldehyde]
virus concentration (exposure time 5 min): 1.05e+06 mL⁻¹
virus concentration (exposure time 15 min): 1000 mL⁻¹
virus concentration (exposure time 60 min): ≤ 500 mL⁻¹
